Assay results from patent US5891917A, “Certain acrylonitrile-sulfonamide derivatives” (Sugen, Inc., priority 1997, dated 1999).

Assays:
EGFR = biological target: T1, EGFR (Homo sapiens, UniProt P00533); test: EGFR Whole Cell Kinase Assay (ELISA); format: cell-based; details: EGFR/C7 (NIH3T3) cells, 25 nM EGF
T1 construct: expressed in transfected cells; host or cells: NIH3T3 clone C7 (EGFR/C7, Honegger et al.)
Description: (§1) The following examples illustrate the ability of the exemplary compounds to inhibit receptor tyrosine kinases, such as HER2 and/or EGFR. The following target cells were used for cellular kinase assays: NIH3T3 clone C7 (Honegger et al., supra) engineered to over-express human EGF receptor; NIH3T3 cells engineered to over-express a chimeric receptor containing the EGFR extracellular domain and the HER2 intracellular kinase domain; the human mammary carcinoma line BT474 (ATCC HTB2) expressing HER2; and the human glioblastoma line U1242 that expresses PDGFR-beta. Growth assays were carried out using human mammary epithelial SKBR3 (ATCC HTB30) cells (SKBR3 cells over-express HER2), SKOV3 (ATCC HTB77) human ovarian cancer cell line (SKOV3 cells also over-express HER2), A431 cells (A431 cells over-express EGFR) MCF7 human breast carcinoma cells, MCF7 cells overexpressing the HER2 kinase (MCF7-HER2), NIH3T3 cells, and NIH3T3 cells overexpressing the HER2 kinase (3T3-HER2.
EGFR Whole Cell Kinase Assay
EGFR kinase activity (EGFR-3T3 assay) in whole cells was measured as described below:
A. Coat ELISA plates (Corning, 96 well, Cat. #25805-96) with 05-101 antibody at 0.5 μg per well in PBS, 150 μl final volume/well, and store overnight at 4° C. Coated plates are good for up to 10 days when stored at 4° C.
B. On day of use, remove coating buffer and replace with blocking buffer (5% Carnation Instant NonFat Dry Milk in PBS). Incubate the plate, shaking, at room temperature (about 23° C. to 25° C.) for 30 minutes. Just prior to use, remove blocking buffer and wash plate 4 times with TBST buffer.
A. EGFR/C7 cell line (Honegger, et al., supra) can be used for this assay.
B. Choose dishes having 80-90% confluence for the experiment. Trypsinize cells and stop reaction by adding 10% CS DMEM medium. Suspend cells in DMEM medium (10% CS DMEM medium) and centrifuge once at 1000 rpm, and once at room temperature for 5 minutes.
C. Resuspend cells in seeding medium (DMEM, 0.5% bovine serum), and count the cells using trypan blue. Viability above 90% is acceptable. Seed cells in DMEM medium (0.5% bovine serum) at a density of 10,000 cells per well, 100 μl per well, in a 96 well microtiter plate. Incubate seeded cells in 5% CO2 at 37° C. for about 40 hours.
A. Check seeded cells for contamination using an inverted microscope. Dilute drug stock (10 mg/ml in DMSO) 1:10 in DMEM medium, then transfer 5 μl to a test well for a final drug dilution of 1:200 and a final DMSO concentration of […]. Control wells receive DMSO alone. Incubate in 5% CO2 at 37° C. for one hour.
B. Prepare EGF ligand: dilute stock EGF in DMEM so that upon transfer of 10 μl dilute EGF (1:12 dilution), 25 nM final concentration is attained.
D. After two hours incubation with drug, add prepared EGF ligand to cells, 10 μl per well, to yield a final concentration of 25 nM. Control wells receive DMEM alone. Incubate, shaking, at room temperature, for 5 minutes.
E. Remove drug, EGF, and DMEM. Wash cells twice with PBS. Transfer HNTG* to cells, 100 μl per well. Place on ice for 5 minutes. Meanwhile, remove blocking buffer from other ELISA plate and wash with TBST as described above.
F. With a pipette tip securely fitted to a micropipettor, scrape cells from plate and homogenize cell material by repeatedly aspirating and dispensing the HNTG* lysis buffer. Transfer lysate to a coated, blocked, and washed ELISA plate. Incubate shaking at room temperature for one hour.
G. Remove lysate and wash 4 times with TBST. Transfer freshly diluted anti-Ptyr antibody to ELISA plate at 100 μl per well. Incubate shaking at room temperature for 30 minutes in the presence of the anti-Ptyr antiserum (1:3000 dilution in TBST).
H. Remove the anti-Ptyr antibody and wash 4 times with TBST. Transfer the freshly diluted TAGO 30 anti-rabbit IgG antibody (anti-rabbit IgG antibody: 1:3000 dilution in TBST) to the ELISA plate at 100 μl per well. Incubate shaking at room temperature for 30 minutes. […]

MCF7/HER2 cells = test: MCF-7/HER-2 SRB Growth Assay; format: cell-based; details: Homo sapiens, read-out: Growth Data: MC7/HER2 (0.5% FBS)
Description: as §1
MCF-7/HER-2 SRB Growth Assay
The protocol is basically the same as that above (for the MCF-7 Growth Assay) except that immediately before the 30 compound is added, the normal growth media is removed and 0.5% FBS/RPMI supplemented with 2 mM Glutamine is added onto the cells. The compound is also prepared in this 0.5% serum media. The plate of cells is incubated for four days and developed as usual.

T1 sequence (P00533 25-1210): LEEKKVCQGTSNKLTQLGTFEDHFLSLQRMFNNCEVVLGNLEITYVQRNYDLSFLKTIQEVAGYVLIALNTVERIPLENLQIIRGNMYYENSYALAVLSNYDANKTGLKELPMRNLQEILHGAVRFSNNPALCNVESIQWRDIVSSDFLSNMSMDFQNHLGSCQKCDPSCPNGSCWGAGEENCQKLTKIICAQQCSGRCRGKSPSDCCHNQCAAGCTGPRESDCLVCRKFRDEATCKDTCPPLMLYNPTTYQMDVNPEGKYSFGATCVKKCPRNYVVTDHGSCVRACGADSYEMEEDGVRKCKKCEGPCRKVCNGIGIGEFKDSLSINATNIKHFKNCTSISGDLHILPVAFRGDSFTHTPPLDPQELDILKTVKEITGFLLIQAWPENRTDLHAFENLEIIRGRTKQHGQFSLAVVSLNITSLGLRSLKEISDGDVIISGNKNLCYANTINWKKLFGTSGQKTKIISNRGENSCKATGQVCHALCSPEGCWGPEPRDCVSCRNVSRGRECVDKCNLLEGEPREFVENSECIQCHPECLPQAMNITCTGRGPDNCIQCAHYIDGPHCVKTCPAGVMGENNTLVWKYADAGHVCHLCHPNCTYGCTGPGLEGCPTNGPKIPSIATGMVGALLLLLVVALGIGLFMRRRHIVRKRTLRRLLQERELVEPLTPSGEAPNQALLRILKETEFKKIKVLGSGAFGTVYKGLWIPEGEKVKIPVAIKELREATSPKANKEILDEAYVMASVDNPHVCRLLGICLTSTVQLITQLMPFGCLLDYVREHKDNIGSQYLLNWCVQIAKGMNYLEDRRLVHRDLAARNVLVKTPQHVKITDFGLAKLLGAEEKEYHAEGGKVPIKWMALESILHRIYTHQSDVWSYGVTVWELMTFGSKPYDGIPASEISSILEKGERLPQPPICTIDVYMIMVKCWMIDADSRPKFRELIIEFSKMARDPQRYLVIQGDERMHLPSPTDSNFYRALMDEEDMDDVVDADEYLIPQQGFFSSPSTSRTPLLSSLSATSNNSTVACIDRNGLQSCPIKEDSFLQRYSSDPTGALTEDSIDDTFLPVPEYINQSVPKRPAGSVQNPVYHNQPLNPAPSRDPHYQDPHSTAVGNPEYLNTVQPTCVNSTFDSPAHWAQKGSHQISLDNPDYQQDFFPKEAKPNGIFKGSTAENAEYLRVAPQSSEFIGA

SMILES	IC50 (EGFR)	IC50 (MCF7/HER2 cells)
CC(C)c1cc(/C=C(\C#N)S(=O)(=O)c2ccccc2)cc(C(C)C)c1O [Compound 731]	73.2 µM	1 µM
CC(C)c1cc(/C=C(\C#N)S(=O)(=O)NCc2ccccc2)cc(C(C)C)c1O [Compound 732]	58 µM	2.5 µM
N#C/C(=C\c1ccc(O)cc1Cl)S(=O)(=O)NCc1ccccc1 [Compound 733]	> 100 µM	16 µM
N#C/C(=C\c1ccc(O)cc1Cl)S(=O)(=O)NCCCc1ccccc1 [Compound 734]	> 100 µM	7 µM
CC(C)(C)c1cc(/C=C(\C#N)S(=O)(=O)Cc2cccc(C(F)(F)F)c2)cc(C(C)(C)C)c1O [Compound 735]		0.5 µM
CC(C)c1cc(/C=C(\C#N)S(=O)(=O)Cc2cccc(C(F)(F)F)c2)cc(C(C)C)c1O [Compound 736]	100 µM	1 µM
CC(C)c1cc(/C=C(\C#N)S(=O)(=O)c2cccs2)cc(C(C)C)c1O [Compound 737]	77 µM	3 µM
CC(C)c1cc(/C=C(\C#N)S(=O)(=O)c2ccsc2)cc(C(C)C)c1O [Compound 738]	79.2 µM	3 µM
Cc1cc(/C=C(\C#N)S(=O)(=O)Cc2cccc(C(F)(F)F)c2)cc(C)c1O [Compound 739]	> 100 µM	14 µM
CC(C)(C)c1cc(/C=C(\C#N)S(=O)(=O)c2ccc(F)cc2)cc(C(C)(C)C)c1O [Compound 740]	> 100 µM	0.007 µM
CC(C)c1cc(/C=C(\C#N)S(=O)(=O)c2ccc(F)cc2)cc(C(C)C)c1O [Compound 741, (E)-3-(3,5-Diisopropyl-4-hydroxyphenyl)-2-(4-fluorophenylsulfonyl)acrylonitrile]	52.7 µM	1 µM
CC(C)(C)c1cc(/C=C(\C#N)S(=O)(=O)c2cccs2)cc(C(C)(C)C)c1O [Compound 742]	> 100 µM	0.2 µM
N#C/C(=C\c1ccc(O)c(O)c1)S(=O)(=O)c1cccs1 [Compound 743, (E)-3-(3,4-Dihydroxyphenyl)-2-[(thien-2-yl)sulfonyl]acrylonitrile]	> 100 µM	
Cc1cc(/C=C(\C#N)S(=O)(=O)c2ccc(F)cc2)cc(C)c1O [Compound 744]	> 100 µM	46 µM
CC(C)c1cc(/C=C(\C#N)S(=O)(=O)/C(C#N)=C/c2cc(C(C)C)c(O)c(C(C)C)c2)cc(C(C)C)c1O [Compound 745]	< 100 µM	
CC(C)(C)c1cc(/C=C(\C#N)S(=O)(=O)c2ccsc2)cc(C(C)(C)C)c1O [Compound 746]	> 100 µM	0.3 µM
CC(C)c1cc(/C=C(\C#N)S(=O)(=O)c2ccccn2)cc(C(C)C)c1O [Compound 747]		26 µM
Cc1cc(/C=C(\C#N)S(=O)(=O)c2ccccc2)cc(C)c1O [Compound 748]		46 µM
